This is an account of results in patent publication US20110207627A1, “EX VIVO THERAPEUTICS SCREENING OF LIVING BONE MARROW CELLS FOR MULTIPLE MYELOMA” (GEORGE MASON UNIVERSITY, priority 2008, published 2011).

For the assay, the system named is CD138+ cells and bone marrow cells (BMC). Nature of the assay: Ex vivo treatment of multiple myeloma bone marrow aspirates, reverse phase protein microarray, CD138+ cells compared with bone marrow cells. It is filed as cell-based, human. Particulars: female, treatment naive multiple myeloma patient; 4 hours ex vivo; IL-6 stimulated cells compared to IGF1R & Rapamycin combination (FIG. 3). The source says:
A workflow using protein kinase signal pathway mapping technology was developed for the ex vivo, short-term drug treatment of fresh, living human multiple myeloma (MM) bone marrow aspirate tumor cells, compared to non MM bone marrow cells for the same patient. The study sought a) to measure the signal pathway perturbations caused by the inhibitor/ligand treatment in individual baseline bone marrow aspirate samples, b) to correlate this with the susceptibility of the ex vivo living sample to apoptosis induction, within 4 hours, by a molecular targeted inhibitor which blocks this pathway, and c) to compare the relative sensitivity of tumor and non tumor bone marrow cells treated in admixture under identical conditions to identify predictive/prognostic protein-based biomarkers.
Human bone marrow aspirates (n=20) and clinical information were collected following an IRB approved protocol from patients providing informed consent. A portion of the aspirate that was not needed for pathological diagnosis was immediately fixed for baseline analysis and the remaining sample was separated into multiple aliquots for ex vivo treatment. […]
Reverse phase protein arrays were used to quantitatively map 60 to 75 signal pathway endpoints. The impact of each treatment was measured on the selected endpoint compared to the vehicle control. […]

As to “IL-6: cytokine used as exogenous ligand to stimulate cells”, the pro survival signaling entry is recorded as “Differential pro survival signaling”.
